Earlier results on one compound are cited in US9744163B2, “Compositions of a polyorthoester and an aprotic solvent” (Heron Therapeutics, Inc., priority 2013, dated 2017).

Each structure is given as a SMILES string.

Turning to `CCOC(C)=O` [ethyl acetate], the “Water Miscibility (solubility in water)” value was “(8.3 g/100 ml)”.
